Laboratory results: US5863948A, “Increasing aqueous humor outflow” (priority 1994, dated 1999)
Where a name gives a salt, the structure may show the parent alone. Read-outs that look alike come from different tables or passages of the source.

Key:
eye [1] = assay: Topical instillation, ocular side effects / irritation in rabbits; format: in vivo, Dutch-belted rabbits
Method: (§1) For rabbit experiments Dutch-belted rabbits of either sex weighing 1.5 to 2 kg were used for topical studies. Each animal was randomly assigned one eye for the experimental and the other for its control solution. Intraocular pressure was measured using a Digilab Pneumotonometer. Any animals showing asymmetry of intraocular pressure greater than 2 mm were excluded form the study.
(§2) The protocol was as follows. Baseline intraocular pressure was taken in each eye using 0.5% proparacaine hydrochloride for topical anesthesia. […] In a half hour this was repeated. Two hours later intraocular pressure was measured in each eye. In some animals intraocular pressure was also measured five hours later and all animals had measurement of intraocular pressure the following day.
(§3) Ethacrynic acid powder was dissolved in 3% methylcellulose to yield the desired concentration. […] The solution was refrigerated over night to yield a transparent, viscous fluid. The pH of the solution was determined by mixing one part of the control or experimental solution with five parts of distilled water. […] The 3% methylcellulose solution was refrigerated when not in use.
(§4) Experiments similar to those described above have also been performed using two esters of ethacrynic acid, RCOOCH2 CH2 N(CH2 CH3)2 (hereinafter "ester A") and RCOOCH2 CH2 CH2 N(CH2 CH3)2 (hereinafter "ester B"), where R is [2,3-dichloro-4-(2-methylene-1-oxobutyl)phenoxy]acetate.
(§5) In all these topical experiments 2 drops of the agent were given 5 minutes apart and control eyes were fully sham manipulated. […] However, not all the animals were slit lamped.

intraocular pressure [2] = assay: Topical instillation, intraocular pressure in rabbits; format: in vivo, Dutch-belted rabbits
Method: as §1, §2, §3, §4, §5

cornea = assay: Topical application, corneal edema in the monkey (flashlight and slit lamp examination); format: in vivo
Method: as §4
(§6) In the monkey, a significant pressure reduction 24 hours after application of 10 mM ester A was observed (control eyes changing from 17±3 to 21±2 mm Hg versus experimental eyes changing from 19±1 to 5±3 mm Hg; n=6). […] This was detected by flashlight examination and confirmed by slit lamp examination.

intraocular pressure [3] = assay: Topical application, intraocular pressure in the monkey; format: in vivo
Method: as §4
After topical application of 10 mM ester A, a reduction in intraocular pressure in the rabbit was observed. This was most apparent 24 hours after instillation ([…] intraocular pressure changing from 22±3 to 15±2 mm Hg; n=8). In all these topical experiments 2 drops of the agent were given 5 minutes apart and control eyes were fully sham manipulated. […] However, not all the animals were slit lamped.
as §6

Solution stability = format: physicochemical
Method: (§7) Each vial of ethacrynic acid contained ethacrynate sodium powder equivalent to 50 mg of ethacrynic acid. […] The powder was diluted with the above basic medium (Dulbecco's with added glucose) to yield the desired concentration. The solution was mixed at room temperature until dissolved, and the pH was determined (always 7.2) before use; the solution was filtered with a 0.2 micron filter (Nuclepore); this produced a solution which was stable for 24 hours.
Ethacrynic acid powder was dissolved in 3% methylcellulose to yield the desired concentration. The solution was mixed at room temperature for one hour and was stable for 24 hours. A similar osmotically balanced control solution was prepared from methyl cellulose powder dissolved in distilled water using low heat for several hours. The solution was refrigerated over night to yield a transparent, viscous fluid. The pH of the solution was determined by mixing one part of the control or experimental solution with five parts of distilled water. The pH ranged between 6.2 and 6.5 for both the control and experimental solutions. The 3% methylcellulose solution was refrigerated when not in use.

Water solubility = format: physicochemical
eye [4] = assay: Ocular changes and intraocular pressure after perfusion in monkeys; format: in vivo, cynomologous monkeys
Excerpt: (§8) Ethacrynic acid (sodium salt) was used to increase aqueous humor outflow in cynomologous monkeys, as described below. Ethacrynic acid can be purchased from Merck, Sharp, and Dome, and is described in U.S. Pat. No. 3,255,241, hereby incorporated by reference. Ethacrynic acid has the chemical formula [2,3-dichloro-4-(2-methylene-1-oxobutyl) phenoxy] acetic acid. Any suitable analog described in U.S. Pat. No. 3,255,241 or its ester or amide derivative can also be used as described herein; for example, the following compounds may be used and are available from Allergan, Inc. (Irvine, Calif.), as indicated by the code number below the structure. [drawing 4]
(§9) Each animal was randomly assigned one eye for the experimental and the other for its control perfusion. The animals were fasted the night before the experiment. They were anesthetized intramuscularly with Methohexital Sodium 15 mg/kg and Pentobarbital Sodium 35 mg/kg. Supplemental anesthesia as required was carried out with Pentobarbital 10 mg/kg/hour. Needles were placed through the cornea into the anterior chamber and a two-step constant pressure perfusion method was performed in order to determine aqueous humor outflow facility. The basic medium for perfusion was Dulbecco's phosphate buffered saline with added 5.5 mM glucose. A 10 microliter bolus of the experimental or control solution (that would produce the desired final concentration in the anterior chamber) was injected through a T shaped connector piece in the infusion line.
as §7
(§10) During perfusion experiments, a 10 microliter bolus injection was made using a Hamilton syringe. Since the monkey anterior chamber is approximately 200 microliters, 10 microliters of 10 mM ethacrynic acid was infused to achieve a final concentration of 0.5 mM ethacrynic acid.
Experiments were carried out using final ethacrynic acid concentrations in the aqueous humor of 0.1 mM to 0.5 mM. There were at least three animals and separate experiments carried out for each of the concentrations 0.1 MM, 0.25 mM, and 0.5 mM.

[5] = tested on: aqueous humor outflow (trabecular meshwork); assay: Two-step constant pressure perfusion of anterior chamber; aqueous humor outflow facility in cynomolgus monkeys in vivo; design: species or system cynomologous monkeys
Excerpt: as §8, §9, §7
The control solution was composed of 9.5 mg sodium chloride (to osmotically balance the experimental solution), 62.5 mg mannitol and 0.1 milliliter thimerosol dissolved in Dulbecco's phosphate buffered saline with 5.5 mM added glucose to yield the desired concentration.
as §10
[…] There were at least three animals and separate experiments carried out for each of the concentrations 0.1 MM, 0.25 mM, and 0.5 mM.

[6] = tested on: calf eye outflow facility; conditions: perfusion at 15 mm Hg and 22° C.; cited from earlier work
monkey eye outflow = conditions: perfusion at 15 mm Hg and 22° C.; cited from earlier work

For `C=C(CC)C(=O)c1ccc(OCC(=O)OCCCN(CC)CC)c(Cl)c1Cl` [ester B, RCOOCH2 CH2 CH2 N(CH2 CH3)2], the signs of irritation (eye [1]; 10 mM ester B, at 24 hours) was “only minimal if any signs of irritation”, the “slit lamp observation of ocular inflammation” value (eye [1]; 10 mM ester B, at 24 hours) was “no slit lamp observations of ocular inflammation” and the “intraocular pressure, experimental eyes” value (intraocular pressure [2]; 10 mM ester B, 24 hours, from 23±3, control eyes 24±2 to 24±2, n=5) was 15±3 mm Hg.
For `C=C(CC)C(=O)c1ccc(OCC(=O)OCCN(CC)CC)c(Cl)c1Cl` [ester A, RCOOCH2 CH2 N(CH2 CH3)2], the corneal edema (cornea; 5 mM ester A) was “corneal edema was likewise apparent”, the corneal edema (cornea; 10 mM ester A) was “significant corneal edema was also observed in over half of the monkeys” and the “resolution of corneal edema” value (cornea; ester A topical, all animals) was “corneal edema ultimately resolved in all animals”. The irritation (eye [1]; 5 mM ester A, two rabbits) was “minimal if any irritation”, the anterior chamber inflammation (eye [1]; 10 mM ester A) was “No anterior chamber inflammation was observed” and the “clearing of external irritation of the lid” value (eye [1]; 10 mM ester A) was 24 h. For the same molecule, the “irritation of eyelid, conjunctiva, nictitating membrane” value (eye [1]; 10 mM ester A) was “Most of the animals demonstrated some irritation of the eyelid and a few to the conjunctiva and nictitating membrane”, the corneal changes (eye [1]; 10 mM ester A, not all animals slit lamped) was “no corneal changes were observed” and the pressure reduction (intraocular pressure [3]; 5 mM ester A) was “no pressure reduction was documented”. The “intraocular pressure, experimental eyes” value (intraocular pressure [3]; 10 mM ester A, 24 hours, from 19±1, control eyes 17±3 to 21±2, n=6) was 5±3 mm Hg and the intraocular pressure (intraocular pressure [2]; 10 mM ester A, 24 hours after instillation, from 22±3, n=8, printed as control eye) was 15±2 mm Hg.
With `C=C(CC)C(=O)c1ccc(OCC(=O)O)c(Cl)c1Cl` [sodium salt of ethacrynic acid] the stability of solution (Solution stability; Dulbecco's phosphate buffered saline with 5.5 mM glucose, pH 7.2) was 24 h and the solubility (Water solubility) was roughly 40 mM.
With `C=C(CC)C(=O)c1ccc(OCC(=O)O)c(Cl)c1Cl` [ethacrynic acid, [2,3-dichloro-4-(2-methylene-1-oxobutyl)phenoxy] acetic acid] the stability of solution (Solution stability) was 24 h, the “intraocular pressure after perfusion” value (eye [4]; a few days after the perfusion experiments) was “symmetrical and normal in both eyes” and the dilated pupil (eye [4]; dosages above 0.25 mM, treated eye) was “some of the animals developed a dilated pupil”. The “chronic corneal edema, opacities or cataract formation” value (eye [4]; perfusion) was “no chronic corneal edema or opacities or cataract formation”, the “corneal or crystalline lens changes” value (eye [4]; perfusion) was “no apparent corneal or crystalline lens changes” and the conjunctival side effect (eye [1]; 5 mM topical) was “slight conjunctival infection”. The other side effects (eye [1]; 5 mM topical) was “no other side effects noted”, the “conjunctival side effect and irritation” value (eye [1]; 10 mM topical) was “moderate conjunctival infection and signs of irritation” and the “resolution of corneal toxicity and inflammation” value (eye [1]; higher concentrations (above 10 mM)) was “resolved without apparent sequelae”. For the same molecule, the “corneal toxicity and anterior chamber inflammation” value (eye [1]; higher concentrations (above 10 mM), for several days) was “signs of corneal toxicity (corneal edema) and anterior chamber inflammation were apparent for several days”, the “response in outflow facility” value ([5]; 0.25 mM) was “approximately half the animals perfused responded with a substantial increase in outflow facility” and the “mean increase in fluid outflow facility” value ([5]; 0.5 mM final concentration in anterior chamber, control perfused eye no change) was 140%. For the same molecule, the “increase in outflow facility” value ([5]; 1.0 mM, one animal, 18% increase in control eye) was 355%, the “effect on outflow facility” value ([5]; lower dosages (below 0.25 mM)) was “no effect” and the “intraocular pressure, treated eye” value (intraocular pressure [2]; 5 mM in 3% methylcellulose, 2 hours, from 22.4 baseline, control eye 21.5 to 23.1, n=8, p less than 0.01) was 19.6 mm Hg. For the same molecule, the “intraocular pressure, treated eye” value (intraocular pressure [2]; 5 mM in 3% methylcellulose, next day, control eye 22.7) was 22.4 mm and the “intraocular pressure, treated eye” value (intraocular pressure [2]; 10 mM and 3% methylcellulose, 24 hours, from 23.0 baseline, control eye 22.9 to 24.2, n=14, p less than 0.001) was 20.0 mm Hg.
In the case of `CCN1C(=O)C=CC1=O` [NEM, N-ethylmaleimide], the “dosage producing a significant increase in the facility of outflow” value [6] is listed as no less than 4.7 mM and the “outflow in the monkey eye” value (monkey eye outflow) is listed as “increase in outflow”.
